The results in this text go back to patent publication US20140315234A1, “METHOD TO GENERATE DOPAMINERGIC NEURONS FROM MOUSE AND HUMAN CELLS” (priority 2010, published 2014).

Like-named read-outs stand apart in the source and are kept apart here.

Experiment [1] deals with K+ channel. It counts as cell-based, mouse.
In experiment [2] the test system is K+ currents. Nature of the experiment: Pharmacological suppression of K+ currents in human iDAN cells. It counts as cell-based. The method, then: (§1) Recordings were performed on reprogrammed mouse and human fibroblasts and primary mesencephalic DA neurons. […] Only cells without signs of detachment from the substrate were used for recordings. Cells were perfused continuously with HEPES-buffered saline (HBS) of the following composition (in mM): 140 NaCl, 5 KCl, 2 CaCl2, 2 MgCl2, 15 HEPES, and 25 glucose, pH 7.4. The patch pipette solution contained (in mM): 130 K-gluconate, 10 KCl, 0.5 CaCl2, 15 HEPES, 5 EGTA, 8 NaCl, 2 MgATP, 0.3 Na2GTP, and 10 glucose, pH adjusted to 7.2 with KOH. Action potentials were recorded in the on-cell and the current-clamp whole-cell configuration. A current was injected to have membrane potentials around −60 mV, and step currents from −50 pA to 40 pA were injected to elicit action potentials. Na^+ currents and composite K^+ currents were recorded in the voltage-clamp configuration by delivering voltage steps ranging from −100 mV to +20 mV in cells held at −60 mV. Delayed rectifier K+ currents were activated by 0.5 s voltage steps from −40 mV to +20 mV after a 0.5 s-long step to −40 mV.

The subject of experiment [3] is Na+ currents. The format is cell-based, human.
The test system of experiment [4] is Na+ voltage-gated channels. It counts as cell-based, mouse.
Experiment [5] concerns D2/D3 receptor. The format is cell-based, mouse. The method, then: as §1

As for `Nc1ccncc1` [4-AP, 4-aminopyridine], in experiment [1] (4-AP 3 mM, TEA 10 mM, in the presence of TTX, n=4), the “effect on outward K+ currents” value was “inhibition of outward currents”. Besides, the “effect on K+ currents and action potentials” value in experiment [2] is reported as “Suppression”.
Consider `NC1=N[C@H](O)[C@H]2[C@H]3O[C@]4(O)O[C@@H]([C@@H](O)[C@@]2(N1)[C@@H]4O)[C@]3(O)CO` [TTX, tetrodotoxin], for which the “effect on Na+ currents and action potentials” value in experiment [3] was “Suppression”. Also, the “block of the fast inward current” value in experiment [4] is listed as “complete block”.
Turning to `CC[N+](CC)(CC)CC` [TEA, tetraethylammonium], the “effect on outward K+ currents” value in experiment [1] was “inhibition of outward currents”.
Turning to `CCCN1CCC[C@@H]2Cc3n[nH]cc3C[C@H]21` [quinpirole], in experiment [5], the “effect on neuronal firing” value is listed as “drastically suppressed neuronal firing in 6 of 10 recorded cells”.
